Experimental data from patent US8735412B2, “Sulfoximine-substituted anilinopyrimidine derivatives as CDK inhibitors, the production thereof, and use as medicine” (Bayer Intellectual Property GmbH, priority 2008, dated 2014).
Read-outs that look alike come from different tables or passages of the source.

Experiments:
CDK1/CycB = target: T1, CDK1/CycB (Homo sapiens, UniProt P06493); test: CDK1/CycB kinase assay (Assay 1); assay type: biochemical; details: 0.5 μM ATP, histon IIIS substrate; read-out: CDK1/CycB (Assay 1) Concentration for 50% inhibition of enzyme activity, IC50
T1 construct: purchased ProQinase GmbH, Freiburg; host or cells: baculovirus-infected insect cells (Sf9)
Experimental: 10.1 Assay 1: CDK1/CycB Kinase Assay
Recombinant CDK1 and CycB-GST fusion proteins, purified from baculovirus-infected insect cells (Sf9), were purchased from ProQinase GmbH, Freiburg. The histon IIIS used as kinase substrate is commercially available from the company Sigma.
CDK1/CycB (200 ng/measuring point) was incubated for 10 min at 22° C. in the presence of various concentrations of test substances (0 μM, and within the range 0.01-100 μM) in assay buffer [50 mM Tris/HCl pH8.0, 10 mM MgCl2, 0.1 mM Na ortho-vanadate, 1.0 mM dithiothreitol, 0.5 μM adenosine triphosphate (ATP), 10 μg/measuring point histon IIIS, 0.2 μCi/measuring point ^33P-gamma ATP, 0.05% NP40, 1.25% dimethylsulfoxide]. The reaction was stopped by adding EDTA solution (250 mM, pH8.0, 15 μl/measuring point).
(§1) From each reaction mixture, 15 μl was applied to P30 filter strips (from Wallac), and unincorporated ^33P-ATP was removed by washing the filter strips three times, for 10 min each time, in 0.5% phosphoric acid. After drying the filter strips for 1 hour at 70° C., the filter strips were covered with scintillator strips (MeltiLex™ A, from Wallac) and stoved for 1 hour at 90° C. The amount of incorporated ^33P (substrate phosphorylation) was determined by scintillation measurement in a gamma-radiation measuring instrument (Wallac). The measured data were standardized to 0% inhibition (enzyme reaction without inhibitor) and 100% inhibition (all assay components except enzyme). The IC50 values were determined by means of a 4-parameter fit using the company's own software.

[1] = target: T2, VEGF receptor tyrosine kinase-2 (Homo sapiens, UniProt P35968); test: VEGF receptor-2 kinase assay (Assay 3); assay type: biochemical; details: 8 μM ATP, poly-(Glu4Tyr) substrate; read-out: VEGF-R2 (Assay 3) Concentration for 50% inhibition of enzyme activity, IC50
T2 construct: GST; made in house; host or cells: baculovirus-infected insect cells (Sf9)
Experimental: 10.3 Assay 3: VEGF Receptor-2 Kinase Assay
Recombinant VEGF receptor tyrosine kinase-2 was purified as GST fusion protein from baculovirus-infected insect cells (Sf9). Poly-(Glu4Tyr), used as kinase substrate, was purchased from the company Sigma.
VEGF receptor tyrosine kinase (90 ng/measuring point) was incubated for 10 min at 22° C. in the presence of various concentrations of test substances (0 μM, and within the range 0.001-30 μM) in 30 μl assay buffer [40 mM Tris/HCl pH5.5, 10 mM MgCl2, 1 mM MnCl2, 3 μM Na ortho-vanadate, 1.0 mM dithiothreitol, 8 μM adenosine triphosphate (ATP), 0.96 μg/measuring point poly-(Glu4Tyr), 0.2 μCi/measuring point ^33P-gamma ATP, 1.4% dimethylsulfoxide]. The reaction was stopped by adding EDTA solution (250 mM, pH8.0, 15 μl/measuring point).
as §1

[2] = test system: HeLa-MaTu human cervical carcinoma xenograft; test: HeLa-MaTu cervical tumor xenograft model on NMRI nude mice; assay type: in vivo; details: oral; for tolerability of the cyclic treatment regimen: 10 mg/kg; for response vs control in vivo at 10 mg/kg: Mus musculus, read-out: treatment/control ratio T/C (tumor weight)
Experimental: HeLa-MaTu (EPO-GmbH, Berlin) human cervical carcinoma cells, which were grown in cell culture, were implanted subcutaneously in the flank of female NMRI nude mice. […] The study was terminated as soon as the tumors in one of the groups reached a size of approx. 150 mm^2.
(§2) The growth-inhibiting effect of the compounds was tested in the HeLa-MaTu cervical tumor model as xenograft on NMRI nude mice. […] Treatment of the established tumors was begun on day 4 after inoculation of the tumors.
as §2, §2
(§3) The study was designed for determining the initial response of a human cervical carcinoma xenograft model to treatments with the 5-Br comparative substance V12. The growth-inhibiting effect of the compounds was tested in the HeLa-MaTu cervical tumor model as xenograft on NMRI nude mice. V12 was dissolved completely in the solubilizer 40% polyethylene glycol 400 (PEG 400)/60% water to a final concentration of 0.7 mg/ml (group 2), 0.85 mg/ml (group 3), or 1.0 mg/ml (group 4). Treatment of the established tumors was begun on day 4 after inoculation of the tumors.
HeLa-MaTu (EPO-GmbH, Berlin) human cervical carcinoma cells, which were grown in cell culture, were implanted subcutaneously in the flank of female NMRI nude mice. […] The study was terminated as soon as the tumors in one of the groups reached a size of approx. 160 mm^2.
(§4) The growth-inhibiting effect of the compounds was tested in the HeLa-MaTu cervical tumor model as xenograft on NMRI nude mice. […] Treatment of the established tumors was begun on day 5 after inoculation of the tumors.
as §4, §4
The following test groups were used: • Group 1: Control, treatment with solubilizer (40% PEG 400/60% water) • Group 2: Compound according to WO 2005/037800 prepared according to preparation V14 disclosed above • (6 mg/kg, oral, 2x daily on day 5, 6, 12, 13, 19, 20) • Group 3: Compound according to WO 2005/037800 prepared according to preparation V14 disclosed above • (8 mg/kg, oral, 2× daily on day 5, 6, 12, 13, 19, 20) • Group 4: Compound according to WO 2005/037800 prepared according to preparation V14 disclosed above • (10 mg/kg, oral, 2× daily on day 5, 6, 12, 13, 19, 20)
as §3, with “substance V14.” for “substance V12.”, “mice. V14” for “mice. V12”, “of 0.6” for “of 0.7”, “2), 0.8” for “2), 0.85”, “day 5” for “day 4”

T2 sequence (P35968 20-1356): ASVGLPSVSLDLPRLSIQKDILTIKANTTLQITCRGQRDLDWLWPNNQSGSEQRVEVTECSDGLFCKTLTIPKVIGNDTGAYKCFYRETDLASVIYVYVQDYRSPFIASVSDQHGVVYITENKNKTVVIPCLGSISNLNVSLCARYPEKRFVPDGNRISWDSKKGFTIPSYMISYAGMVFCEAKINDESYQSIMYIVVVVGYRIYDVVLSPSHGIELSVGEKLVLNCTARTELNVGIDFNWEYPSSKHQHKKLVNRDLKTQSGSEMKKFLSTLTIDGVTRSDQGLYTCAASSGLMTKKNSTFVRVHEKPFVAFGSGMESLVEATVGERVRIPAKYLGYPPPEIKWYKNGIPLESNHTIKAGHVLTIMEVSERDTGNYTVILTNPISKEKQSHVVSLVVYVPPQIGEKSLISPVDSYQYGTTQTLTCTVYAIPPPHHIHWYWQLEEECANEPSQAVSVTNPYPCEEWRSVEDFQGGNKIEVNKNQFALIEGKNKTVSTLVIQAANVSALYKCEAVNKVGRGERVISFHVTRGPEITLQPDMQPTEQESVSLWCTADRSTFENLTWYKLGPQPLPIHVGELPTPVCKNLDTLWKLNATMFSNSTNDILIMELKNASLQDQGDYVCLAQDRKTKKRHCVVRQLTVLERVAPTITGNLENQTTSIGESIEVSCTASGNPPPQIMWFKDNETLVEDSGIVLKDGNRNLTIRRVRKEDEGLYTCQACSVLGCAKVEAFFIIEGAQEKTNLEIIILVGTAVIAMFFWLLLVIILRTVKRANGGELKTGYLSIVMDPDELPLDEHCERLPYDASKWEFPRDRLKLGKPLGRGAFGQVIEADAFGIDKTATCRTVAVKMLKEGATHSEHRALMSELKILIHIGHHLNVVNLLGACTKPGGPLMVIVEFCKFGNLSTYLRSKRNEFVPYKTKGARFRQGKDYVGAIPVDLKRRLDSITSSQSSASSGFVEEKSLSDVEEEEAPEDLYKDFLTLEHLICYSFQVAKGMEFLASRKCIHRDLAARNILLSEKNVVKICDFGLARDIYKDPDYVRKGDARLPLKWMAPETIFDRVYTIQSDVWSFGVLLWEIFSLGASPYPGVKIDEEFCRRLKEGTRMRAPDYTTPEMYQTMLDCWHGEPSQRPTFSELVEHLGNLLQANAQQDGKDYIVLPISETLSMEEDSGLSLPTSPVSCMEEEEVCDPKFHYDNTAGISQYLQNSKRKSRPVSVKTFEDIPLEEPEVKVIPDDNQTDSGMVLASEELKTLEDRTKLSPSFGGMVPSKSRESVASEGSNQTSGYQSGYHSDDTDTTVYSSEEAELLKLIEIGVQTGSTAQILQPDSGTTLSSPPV
T1 sequence (P06493 whole entry): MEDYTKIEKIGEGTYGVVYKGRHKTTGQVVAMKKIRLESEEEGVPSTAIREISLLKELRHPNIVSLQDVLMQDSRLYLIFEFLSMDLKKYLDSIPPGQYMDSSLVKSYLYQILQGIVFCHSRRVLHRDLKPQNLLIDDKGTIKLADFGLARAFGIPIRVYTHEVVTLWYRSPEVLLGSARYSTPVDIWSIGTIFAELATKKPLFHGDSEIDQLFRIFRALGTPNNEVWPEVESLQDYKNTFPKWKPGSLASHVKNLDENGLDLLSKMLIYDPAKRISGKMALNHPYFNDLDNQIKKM
T1 sequence (P14635 whole entry partner): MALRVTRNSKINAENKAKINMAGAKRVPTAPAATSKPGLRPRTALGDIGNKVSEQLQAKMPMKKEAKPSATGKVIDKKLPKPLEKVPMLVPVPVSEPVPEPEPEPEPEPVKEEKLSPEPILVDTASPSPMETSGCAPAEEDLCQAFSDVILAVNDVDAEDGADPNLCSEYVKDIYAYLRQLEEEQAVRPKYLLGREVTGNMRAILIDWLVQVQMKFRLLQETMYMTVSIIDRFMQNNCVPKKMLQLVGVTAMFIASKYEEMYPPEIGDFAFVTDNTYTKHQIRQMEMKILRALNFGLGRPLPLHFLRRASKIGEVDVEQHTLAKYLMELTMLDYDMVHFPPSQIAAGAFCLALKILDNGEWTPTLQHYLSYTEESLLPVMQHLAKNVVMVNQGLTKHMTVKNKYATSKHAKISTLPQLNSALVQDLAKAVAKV

SMILES | IC50 (CDK1/CycB) [nM] | IC50 [1] [nM] | reduction of tumor weight at the end of the study to % of the control group ([2]; 10 mg/kg (group 4), 2x daily on day 5, 6, 12, 13, 19, 20, day 20) [%] | tolerability of the cyclic treatment regimen ([2]; 2x daily on day 5, 6, 12, 13, 19, 20) | effect on tumor growth (in words) ([2]; 6, 8, 10 mg/kg, 2x daily on day 5, 6, 12, 13, 19, 20) | response vs control in vivo at 10 mg/kg ([2]; 480 h, 10 mg/kg (group 4), 2x daily on day 5, 6, 12, 13, 19, 20, day 20) [%] | tolerability of the cyclic treatment regimen ([2]; 2x daily on day 4, 5, 11, 12, 17, 18, 23, 24) | effect on tumor growth (in words) ([2]; 7, 8.5, 10 mg/kg, 2x daily on day 4, 5, 11, 12, 17, 18, 23, 24) | response vs control in vivo at 10 mg/kg ([2]; 672 h, 10 mg/kg (group 4), 2x daily on day 4, 5, 11, 12, 17, 18, 23, 24, day 28) [%]
C[C@@H](O)[C@@H](C)Oc1nc(Nc2ccc(S(=N)(=O)C3CC3)cc2)ncc1Br (single isomer, unassigned) [Example V14] | 4 | 91 | 44 | well-tolerated | dose-dependent inhibition of tumor growth | 44 | – | – | –
CCS(=N)(=O)c1ccc(Nc2ncc(Br)c(N[C@H](C)[C@@H](C)O)n2)cc1 (some centres unmarked) [Example V12] | 3 | 32 | – | – | – | – | well-tolerated | dose-dependent weak inhibition of tumor growth | 51
